Results taken from PubChem BioAssay (NCI).
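A five-concentration, 48-hour dose response in 96-well plates underlies each endpoint, interpolated linearly between surrounding concentrations. At the GI50, growth is halved. The concentration for full growth arrest is given as TGI.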

Tests used:
Assay in all cases: DTP human tumour cell line panel, 48 h
DU-145 prostate = test system: DU-145 prostate
EKVX NSCLC = test system: EKVX NSCLC
MALME-3M melanoma = test system: MALME-3M melanoma
OVCAR-5 ovarian = test system: OVCAR-5 ovarian
T-47D breast = test system: T-47D breast
MDA-MB-231 breast = test system: MDA-MB-231 breast
KM12 colon = test system: KM12 colon
SR leukemia = test system: SR leukemia
UACC-257 melanoma = test system: UACC-257 melanoma
OVCAR-3 ovarian = test system: OVCAR-3 ovarian
HS 578T breast = test system: HS 578T breast
U251 CNS = test system: U251 CNS
ACHN renal = test system: ACHN renal
HCT-116 colon = test system: HCT-116 colon
COLO 205 colon = test system: COLO 205 colon
MCF7 breast = test system: MCF7 breast
CCRF-CEM leukemia = test system: CCRF-CEM leukemia
SNB-19 CNS = test system: SNB-19 CNS
SW-620 colon = test system: SW-620 colon
SK-MEL-28 melanoma = test system: SK-MEL-28 melanoma
SN12C renal = test system: SN12C renal
K-562 leukemia = test system: K-562 leukemia
MOLT-4 leukemia = test system: MOLT-4 leukemia
A498 renal = test system: A498 renal
UACC-62 melanoma = test system: UACC-62 melanoma
OVCAR-4 ovarian = test system: OVCAR-4 ovarian
MDA-MB-468 breast = test system: MDA-MB-468 breast
OVCAR-8 ovarian = test system: OVCAR-8 ovarian
HCC-2998 colon = test system: HCC-2998 colon
M14 melanoma = test system: M14 melanoma
TK-10 renal = test system: TK-10 renal
SF-268 CNS = test system: SF-268 CNS
HCT-15 colon = test system: HCT-15 colon
NCI-H23 lung = test system: NCI-H23 lung
SK-MEL-5 melanoma = test system: SK-MEL-5 melanoma
IGROV1 ovarian = test system: IGROV1 ovarian
SNB-75 CNS = test system: SNB-75 CNS
LOX IMVI melanoma = test system: LOX IMVI melanoma
SK-OV-3 ovarian = test system: SK-OV-3 ovarian
PC-3 prostate = test system: PC-3 prostate
UO-31 renal = test system: UO-31 renal
HOP-92 NSCLC = test system: HOP-92 NSCLC
NCI-H460 lung = test system: NCI-H460 lung
A549 NSCLC = test system: A549 NSCLC
MDA-MB-435 = test system: MDA-MB-435
BT-549 breast = test system: BT-549 breast
CAKI-1 renal = test system: CAKI-1 renal
HT29 colon = test system: HT29 colon
RXF 393 renal = test system: RXF 393 renal
NCI-H522 lung = test system: NCI-H522 lung
RPMI-8226 leukemia = test system: RPMI-8226 leukemia
SF-295 CNS = test system: SF-295 CNS
SF-539 CNS = test system: SF-539 CNS
786-0 renal = test system: 786-0 renal
NCI-H226 lung = test system: NCI-H226 lung
SK-MEL-2 melanoma = test system: SK-MEL-2 melanoma
HL-60(TB) leukemia = test system: HL-60(TB) leukemia
NCI/ADR-RES ovarian = test system: NCI/ADR-RES ovarian
HOP-62 NSCLC = test system: HOP-62 NSCLC

Compound `O=c1[nH]c2ccccc2cc1CSc1ccc(Nc2nccc(-c3ccc(Cl)cc3)n2)cc1` has a GI50 (DU-145 prostate) of 1520 nM, a TGI (DU-145 prostate) of 9160 nM and a GI50 (EKVX NSCLC) of 1420 nM. It also gave a TGI (EKVX NSCLC) of 4770 nM, a GI50 (MALME-3M melanoma) of 1810 nM and a TGI (MALME-3M melanoma) of 6090 nM. It also gave a GI50 (OVCAR-5 ovarian) of 2470 nM, a TGI (OVCAR-5 ovarian) of 11200 nM and a GI50 (T-47D breast) of 2240 nM. It also gave a TGI (T-47D breast) of 8070 nM, a GI50 (MDA-MB-231 breast) of 1260 nM and a TGI (MDA-MB-231 breast) of 3040 nM. For the same compound, the GI50 (KM12 colon) was 11000 nM, the TGI (KM12 colon) was over 100000 nM and the GI50 (SR leukemia) was 6370 nM. The TGI (SR leukemia) was 29700 nM, the GI50 (UACC-257 melanoma) was 13300 nM and the TGI (UACC-257 melanoma) was 79500 nM. It also gave a GI50 (OVCAR-3 ovarian) of 945 nM, a TGI (OVCAR-3 ovarian) of 2460 nM and a GI50 (HS 578T breast) of 621 nM. The TGI (HS 578T breast) was 3450 nM, the GI50 (U251 CNS) was 368 nM and the TGI (U251 CNS) was 1440 nM. For the same compound, the GI50 (ACHN renal) was 744 nM, the TGI (ACHN renal) was 2180 nM and the GI50 (HCT-116 colon) was 644 nM. The TGI (HCT-116 colon) was 3650 nM, the GI50 (COLO 205 colon) was 2640 nM and the TGI (COLO 205 colon) was 25000 nM. The GI50 (MCF7 breast) was 2590 nM, the TGI (MCF7 breast) was 15900 nM and the GI50 (CCRF-CEM leukemia) was 2930 nM. The TGI (CCRF-CEM leukemia) was 23200 nM, the GI50 (SNB-19 CNS) was 1180 nM and the TGI (SNB-19 CNS) was 2580 nM. The GI50 (SW-620 colon) was 1540 nM, the TGI (SW-620 colon) was 13400 nM and the GI50 (SK-MEL-28 melanoma) was 4450 nM. It also gave a TGI (SK-MEL-28 melanoma) of 23600 nM, a GI50 (SN12C renal) of 1990 nM and a TGI (SN12C renal) of 4470 nM. The GI50 (K-562 leukemia) was 2570 nM, the TGI (K-562 leukemia) was 18300 nM and the GI50 (MOLT-4 leukemia) was 3780 nM. It also gave a TGI (MOLT-4 leukemia) of 56900 nM, a GI50 (A498 renal) of 1230 nM and a TGI (A498 renal) of 2600 nM. The GI50 (UACC-62 melanoma) was 3920 nM, the TGI (UACC-62 melanoma) was 15200 nM and the GI50 (OVCAR-4 ovarian) was 334 nM. For the same compound, the TGI (OVCAR-4 ovarian) was 1260 nM, the GI50 (MDA-MB-468 breast) was 1150 nM and the TGI (MDA-MB-468 breast) was 3140 nM. It also gave a GI50 (OVCAR-8 ovarian) of 1600 nM, a TGI (OVCAR-8 ovarian) of 3500 nM and a GI50 (HCC-2998 colon) of 4050 nM. It also gave a TGI (HCC-2998 colon) of 25300 nM, a GI50 (M14 melanoma) of 4900 nM and a TGI (M14 melanoma) of 30900 nM. It also gave a GI50 (TK-10 renal) of 1650 nM, a TGI (TK-10 renal) of 3340 nM and a GI50 (SF-268 CNS) of 1070 nM. The TGI (SF-268 CNS) was 4970 nM, the GI50 (HCT-15 colon) was 1020 nM and the TGI (HCT-15 colon) was 15200 nM. It also gave a GI50 (NCI-H23 lung) of 1660 nM, a TGI (NCI-H23 lung) of 4850 nM and a GI50 (SK-MEL-5 melanoma) of 2490 nM. It also gave a TGI (SK-MEL-5 melanoma) of 9560 nM, a GI50 (IGROV1 ovarian) of 3710 nM and a TGI (IGROV1 ovarian) of 14300 nM. The GI50 (SNB-75 CNS) was 245 nM, the TGI (SNB-75 CNS) was 1420 nM and the GI50 (LOX IMVI melanoma) was 1830 nM. The TGI (LOX IMVI melanoma) was 5240 nM, the GI50 (SK-OV-3 ovarian) was 2260 nM and the TGI (SK-OV-3 ovarian) was 5490 nM. For the same compound, the GI50 (PC-3 prostate) was 1830 nM, the TGI (PC-3 prostate) was 6280 nM and the GI50 (UO-31 renal) was 1830 nM. It also gave a TGI (UO-31 renal) of 4030 nM, a GI50 (HOP-92 NSCLC) of 1110 nM and a TGI (HOP-92 NSCLC) of 2800 nM. The GI50 (NCI-H460 lung) was 383 nM, the TGI (NCI-H460 lung) was 1420 nM and the GI50 (A549 NSCLC) was 1460 nM. The TGI (A549 NSCLC) was 3500 nM, the GI50 (MDA-MB-435) was 2750 nM and the TGI (MDA-MB-435) was 13100 nM. For the same compound, the GI50 (BT-549 breast) was 2160 nM, the TGI (BT-549 breast) was 6980 nM and the GI50 (CAKI-1 renal) was 1170 nM. It also gave a TGI (CAKI-1 renal) of 2730 nM, a GI50 (HT29 colon) of 917 nM and a TGI (HT29 colon) of 5520 nM. The GI50 (RXF 393 renal) was 1700 nM, the TGI (RXF 393 renal) was 4420 nM and the GI50 (NCI-H522 lung) was 2170 nM. The TGI (NCI-H522 lung) was 6790 nM, the GI50 (RPMI-8226 leukemia) was 2410 nM and the TGI (RPMI-8226 leukemia) was 21500 nM. The GI50 (SF-295 CNS) was 776 nM, the TGI (SF-295 CNS) was 2140 nM and the GI50 (SF-539 CNS) was 1660 nM. For the same compound, the TGI (SF-539 CNS) was 3400 nM, the GI50 (786-0 renal) was 1160 nM and the TGI (786-0 renal) was 2550 nM. The GI50 (NCI-H226 lung) was 1300 nM, the TGI (NCI-H226 lung) was 2880 nM and the GI50 (SK-MEL-2 melanoma) was 12900 nM. For the same compound, the TGI (SK-MEL-2 melanoma) was 26200 nM, the GI50 (HL-60(TB) leukemia) was 43200 nM and the TGI (HL-60(TB) leukemia) was over 100000 nM. For the same compound, the GI50 (NCI/ADR-RES ovarian) was 1130 nM, the TGI (NCI/ADR-RES ovarian) was 3320 nM and the GI50 (HOP-62 NSCLC) was 1720 nM. It also gave a TGI (HOP-62 NSCLC) of 3450 nM.
